These results are taken from patent publication US12655113B2, “Biphenyl compounds as SOCE modulators, compositions and uses thereof” (Università degli Studi del Piemonte Orientale “Amedeo …, priority 2020, dated 2026).

Structures are written as SMILES.

For the first experiment, the system named is tBHQ-induced calcium influx into Hek cells (SOCE). The experiment in a line: Store-operated calcium entry (SOCE) by Fura-2 Ca2+ measurements in Hek cells. The class given is cell-based, Human. As to conditions: FIG. 2A; HEK cells, stores depleted with 50 μM tBHQ, compound added with 2 mM Ca2+.
Turning to `COc1cccc(-c2ccc(-n3cc(-c4cccc(C(=O)O)c4)nn3)cc2)c1OC` [Compound 20, 3-(1-(2′,3′-dimethoxy-[1,1′-biphenyl]-4-yl)-1H-1,2,3-triazol-4-yl)benzoic acid], the “Calcium response to SOCE-modulators (regulation of SOCE)” value is “negatively regulate SOCE”.

Regarding `COc1ccc(OC)c(-c2ccc(-n3cc(-c4ccncc4F)nn3)cc2)c1` [Compound 26, 4-(1-(2′,5′-dimethoxy-[1,1′-biphenyl]-4-yl)-1H-1,2,3-triazol-4-yl)-3-fluoropyridine], the “Calcium response to SOCE-modulators (regulation of SOCE)” value is “no activity”.

The same experiment, now with this note: Homo sapiens, HEK293; Hek cells, 3 μM.
For the compound `COc1ccc(OC)c(-c2ccc(-n3cc(-c4cccc(C(=O)O)c4)nn3)cc2)c1` [Compound 24, 3-(1-(2′,5′-dimethoxy-[1,1′-biphenyl]-4-yl)-1H-1,2,3-triazol-4-yl)benzoic acid], the inhibition (usually the percentage by which the read-out fell short of the control) at 3 µM amounted to 85.8 ± 6.5%. Same read-out and setting: the figure for `COc1cccc(-c2ccc(-c3cn(-c4cccc(C(=O)O)c4)nn3)cc2)c1OC` [Compound 42, 3-(4-(2′,3′-dimethoxy-[1,1′-biphenyl]-4-yl)-1H-1,2,3-triazol-1-yl)benzoic acid] is 93.2 ± 5.1%.

The experiment is the same for the next values; noted with them: Homo sapiens, HEK293; Hek cells, 3 μM; read-out: Residual activity of SOCE.
With `COc1cccc(OC)c1-c1ccc(-c2cn(-c3cccc(C(=O)O)c3)nn2)cc1` [Compound 44, 3-(4-(2′,6′-dimethoxy-[1,1′-biphenyl]-4-yl)-1H-1,2,3-triazol-1-yl)benzoic acid], the activity at 3 µM was determined as 122.8 ± 0.89%.

The same experiment, now with this note: Homo sapiens, HEK293; Hek cells, 10 μM.
On to `CSc1cccc(-c2ccc(-n3cc(-c4cccc(C(=O)O)c4)nn3)cc2)c1` [Compound 11, 3-(1-(3′-(methylthio)-[1,1′-biphenyl]-4-yl)-1H-1,2,3-triazol-4-yl)benzoic acid], for which the inhibition at 10 µM was 72.6 ± 13.6%. Same read-out and setting: the figure for `COc1ccccc1-c1ccc(-n2cc(-c3cccc(C(=O)O)c3)nn2)cc1` [Compound 12, 3-(1-(2′-methoxy-[1,1′-biphenyl]-4-yl)-1H-1,2,3-triazol-4-yl)benzoic acid] is 47.2 ± 7.2%; for `COc1ccc(-c2ccc(-n3cc(-c4cccc(C(=O)O)c4)nn3)cc2)c(OC)c1` [Compound 15, 3-(1-(2′,4′-dimethoxy-[1,1′-biphenyl]-4-yl)-1H-1,2,3-triazol-4-yl)benzoic acid] it is 68.1 ± 4.2%; for `COc1cc(OC)cc(-c2ccc(-n3cc(-c4cccc(C(=O)O)c4)nn3)cc2)c1` [Compound 16, 3-(1-(3′,5′-dimethoxy-[1,1′-biphenyl]-4-yl)-1H-1,2,3-triazol-4-yl)benzoic acid] it is 77.4 ± 4.7%.

Regarding `O=C(O)c1cccc(-c2cn(-c3ccc(-c4ccc5c(c4)OCO5)cc3)nn2)c1` [Compound 17, 3-(1-(4-(benzo[d][1,3]dioxol-5-yl)phenyl)-1H-1,2,3-triazol-4-yl)benzoic acid], the inhibition at 10 µM worked out at 37.3 ± 4.2%. In the case of `COc1ccc(OC)c(-c2ccc(-n3cc(-c4ccnc(C(=O)O)c4)nn3)cc2)c1` [Compound 25, 4-(1-(2′,5′-dimethoxy-[1,1′-biphenyl]-4-yl)-1H-1,2,3-triazol-4-yl)picolinic acid], the inhibition at 10 µM turned out to be 79.9 ± 4.1%.

Consider `COc1ccccc1-c1ccc(-c2cn(-c3cccc(C(=O)O)c3)nn2)cc1` [Compound 35, 3-(4-(2′-methoxy-[1,1′-biphenyl]-4-yl)-1H-1,2,3-triazol-1-yl)benzoic acid], for which the inhibition at 10 µM was determined as 59.6 ± 5.43%. Take `COc1cccc(-c2ccc(-c3cn(-c4cccc(C(=O)O)c4)nn3)cc2)c1` [Compound 36, 3-(4-(3′-methoxy-[1,1′-biphenyl]-4-yl)-1H-1,2,3-triazol-1-yl)benzoic acid]: the inhibition at 10 µM is 87 ± 1.1%. Same read-out and setting: under `COc1ccc(-c2ccc(-c3cn(-c4cccc(C(=O)O)c4)nn3)cc2)c(OC)c1` [Compound 37, 3-(4-(2′,4′-dimethoxy-[1,1′-biphenyl]-4-yl)-1H-1,2,3-triazol-1-yl)benzoic acid] stands 77.1 ± 0.9%. The same measure, in the same setting: under `COc1cc(OC)cc(-c2ccc(-c3cn(-c4cccc(C(=O)O)c4)nn3)cc2)c1` [Compound 38, 3-(4-(3′,5′-dimethoxy-[1,1′-biphenyl]-4-yl)-1H-1,2,3-triazol-1-yl)benzoic acid] stands 86.2 ± 4.2%.
